Tested on: mouse skin
Experiment: Cytokines in mouse skin culture supernatant after epicutaneous treatment
Assay type: in vivo, C57BL/6 WT, MyD88-ko, 5xTLR-ko mice
Conditions: 1.5 µg lugdunin epicutaneous 24 h; for MIP-2 concentration in skin culture supernatant: Fig 2e; for IL-1α concentration in skin culture supernatant: Fig 2d
Method: Fig. 2 Induction of chemokine (C-X-C motif) ligand 8/macrophage inflammatory protein-2 (CXCL8/MIP-2) by lugdunin is TLR2/MyD88-dependent. a HEK-control or HEK-TLR2 cells were treated with 2 μM lugdunin for 5 h and subsequently the CXCL8 concentration in the supernatant was analyzed by LEGENDplex^TM (BioLegend). Shown is one representative experiment of three independent experiments with two technical replicates ± s.e.m. b HEK-control or HEK-TLR2 cells were treated with increasing concentrations of lugdunin for 5 h and subsequently expression of CXCL8 was analyzed and normalized to actin. Shown is one representative experiment of three independent experiments with two technical replicates ± s.e.m. c Schematic overview of the mouse experiments: 6–8-week-old female C5BL/6 WT, MyD88-knockout (ko), or 5xTLR-ko mice were epicutaneously treated with 1.5 µg lugdunin or phosphate-buffered saline (PBS) as a control. After 24 h, mice were euthanized, 4 mm skin punches were taken, and further cultured in vitro for 10 h followed by cytokine analysis of the culture supernatant by LEGENDplex^TM (BioLegend). d, e Shown are the mean concentrations of IL-1α (d) or MIP-2 (e) in the skin culture supernatant of two skin punches from four mice each ± s.e.m. Significant differences to control treatments were analyzed by an unpaired two-tailed t test (*P < 0.05; **P < 0.01; ***P < 0.001). f Representative MIP-2-stained paraffin-embedded mouse skin sections. Scale bar, 100 µM. Source data are provided as a Source Data file
For cytokine analysis from cell cultures, 10 µL of supernatant was used for cytokine analysis via the LEGENDplex^TM human inflammation panel (BioLegend). For cytokine analysis from mouse skin, 4 mm skin punches were cultured in an airlift system where only the dermis had access to medium for 10 h. Skin punches were cultured in RPMI containing 1% FCS (Biochrom/Merck Millipore), 1% penicillin and streptomycin (Gibco/Life Technologies) and 0.25 µg/mL amphotericin B (CELLnTEC). Ten microliters of a 3-fold dilution of culture supernatant was used for cytokine analysis via the LEGENDplex^TM mouse inflammation panel (BioLegend). Samples were acquired in duplicates using a BD LSRII flow cytometer (BD Biosciences) and LEGENDplex^TM Software (BioLegend).
For IL-1α analysis, 100 µL of cell culture supernatant was analyzed via ELISA (R&D Systems) according to manufacturer’s instruction. For MIP-2 analysis, 100 µL of a 5-fold dilution from skin cultures supernatant was used and analyzed via ELISA (R&D Systems) according to the manufacturer’s instruction. For LL-37 ELISA, ELISA plates (Nunc) were coated overnight at 4 °C with 100 µL of cell culture supernatant or 2-fold dilutions of LL-37 starting from 8 µg/mL. The next day, the plate was washed three times using PBS + 0.5% BSA + 0.05% Triton X-100, followed by incubation with 100 µL primary antibody against hCAP18/LL-37 (HycultBiotech, Cat#HM2071, 1:120 in PBS + 0.5% BSA + 0.05% Triton X-100) at 37 °C for 1 h. After washing, incubation with 100 µL secondary antibody (Cell Signaling, Cat#7076S, 1:3000 in PBS + 0.5% BSA + 0.05% Triton X-100) followed at 37 °C for 1 h. Subsequently, plates were washed and 100 µL TMB substrate solution (Cell Signaling) was added. Reaction was stopped with 50 µL 2 N H2SO4 and absorbance at 450 nm was measured using a Fluoroskan II (Labsystems).
To analyze the immune cell composition and cytokines in the skin, 15 µL containing 1.5 μg lugdunin or PBS as a control were epicutaneously applied for 24 h on the shaved back skin of C57BL/6 WT/MYD88-ko/5xTLR-ko mice. After 24 h, mice were euthanized and relevant skin areas or 4 mm skin punches were removed for immune cell analysis and LEGENDplex^TM (BioLegend) cytokine analysis. […]
55 c: Shown are the mean concentrations of the indicated cytokines in the supernatant of
56 the organ skin culture of two skin punches from four mice each +/- s.e.m. […]
61 Source data are provided as a Source Data file.

[1] = 5xTLR-ko mice, punches cultured 10 h, single punches
[2] = MyD88-ko mice, punches cultured 10 h, single punches

## Lugdunin
[1]
  MIP-2 concentration in skin culture supernatant: reduced
  IL-1α concentration in skin culture supernatant: still able to induce
[2]
  MIP-2 concentration in skin culture supernatant: completely impaired
  IL-1α concentration in skin culture supernatant: still able to induce
WT mice, punches cultured 10 h, single punches
  MIP-2 concentration in skin culture supernatant: induced
WT mice, skin punches cultured 10 h, single punches (rows)
  IL-1α concentration in skin culture supernatant: induced
